Laboratory results from patent publication US11427558B1, “Indazoles and azaindazoles as LRRK2 inhibitors” (ESCAPE Bio, Inc., priority 2019, dated 2022).

Tests used:
[1] = target: Recombinant G2019S-LRRK2 protein (Homo sapiens (Human), UniProt Q5S007, G2019S); test: LRRK2 kinase activity, LanthaScreen TR-FRET assay (G2019S); assay type: biochemical; details: LRRKtide 400 nM, 25 μM ATP, 60 min
In short: (§1)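 Recombinant human wild-type or G2019S LRRK2 phosphorylated fluorescein-labelled LRRKtide (ERM-based) with ATP and serially diluted compound for 60 min at room temperature.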

[2] = target: Recombinant wild type LRRK2 protein (Homo sapiens (Human), UniProt Q5S007); test: LRRK2 kinase activity, LanthaScreen TR-FRET assay (wild type); assay type: biochemical; details: LRRKtide 400 nM, 25 μM ATP, 60 min; read-out: LRRK2 WT IC50
Sequence of Recombinant wild type LRRK2 protein (Q5S007 whole entry): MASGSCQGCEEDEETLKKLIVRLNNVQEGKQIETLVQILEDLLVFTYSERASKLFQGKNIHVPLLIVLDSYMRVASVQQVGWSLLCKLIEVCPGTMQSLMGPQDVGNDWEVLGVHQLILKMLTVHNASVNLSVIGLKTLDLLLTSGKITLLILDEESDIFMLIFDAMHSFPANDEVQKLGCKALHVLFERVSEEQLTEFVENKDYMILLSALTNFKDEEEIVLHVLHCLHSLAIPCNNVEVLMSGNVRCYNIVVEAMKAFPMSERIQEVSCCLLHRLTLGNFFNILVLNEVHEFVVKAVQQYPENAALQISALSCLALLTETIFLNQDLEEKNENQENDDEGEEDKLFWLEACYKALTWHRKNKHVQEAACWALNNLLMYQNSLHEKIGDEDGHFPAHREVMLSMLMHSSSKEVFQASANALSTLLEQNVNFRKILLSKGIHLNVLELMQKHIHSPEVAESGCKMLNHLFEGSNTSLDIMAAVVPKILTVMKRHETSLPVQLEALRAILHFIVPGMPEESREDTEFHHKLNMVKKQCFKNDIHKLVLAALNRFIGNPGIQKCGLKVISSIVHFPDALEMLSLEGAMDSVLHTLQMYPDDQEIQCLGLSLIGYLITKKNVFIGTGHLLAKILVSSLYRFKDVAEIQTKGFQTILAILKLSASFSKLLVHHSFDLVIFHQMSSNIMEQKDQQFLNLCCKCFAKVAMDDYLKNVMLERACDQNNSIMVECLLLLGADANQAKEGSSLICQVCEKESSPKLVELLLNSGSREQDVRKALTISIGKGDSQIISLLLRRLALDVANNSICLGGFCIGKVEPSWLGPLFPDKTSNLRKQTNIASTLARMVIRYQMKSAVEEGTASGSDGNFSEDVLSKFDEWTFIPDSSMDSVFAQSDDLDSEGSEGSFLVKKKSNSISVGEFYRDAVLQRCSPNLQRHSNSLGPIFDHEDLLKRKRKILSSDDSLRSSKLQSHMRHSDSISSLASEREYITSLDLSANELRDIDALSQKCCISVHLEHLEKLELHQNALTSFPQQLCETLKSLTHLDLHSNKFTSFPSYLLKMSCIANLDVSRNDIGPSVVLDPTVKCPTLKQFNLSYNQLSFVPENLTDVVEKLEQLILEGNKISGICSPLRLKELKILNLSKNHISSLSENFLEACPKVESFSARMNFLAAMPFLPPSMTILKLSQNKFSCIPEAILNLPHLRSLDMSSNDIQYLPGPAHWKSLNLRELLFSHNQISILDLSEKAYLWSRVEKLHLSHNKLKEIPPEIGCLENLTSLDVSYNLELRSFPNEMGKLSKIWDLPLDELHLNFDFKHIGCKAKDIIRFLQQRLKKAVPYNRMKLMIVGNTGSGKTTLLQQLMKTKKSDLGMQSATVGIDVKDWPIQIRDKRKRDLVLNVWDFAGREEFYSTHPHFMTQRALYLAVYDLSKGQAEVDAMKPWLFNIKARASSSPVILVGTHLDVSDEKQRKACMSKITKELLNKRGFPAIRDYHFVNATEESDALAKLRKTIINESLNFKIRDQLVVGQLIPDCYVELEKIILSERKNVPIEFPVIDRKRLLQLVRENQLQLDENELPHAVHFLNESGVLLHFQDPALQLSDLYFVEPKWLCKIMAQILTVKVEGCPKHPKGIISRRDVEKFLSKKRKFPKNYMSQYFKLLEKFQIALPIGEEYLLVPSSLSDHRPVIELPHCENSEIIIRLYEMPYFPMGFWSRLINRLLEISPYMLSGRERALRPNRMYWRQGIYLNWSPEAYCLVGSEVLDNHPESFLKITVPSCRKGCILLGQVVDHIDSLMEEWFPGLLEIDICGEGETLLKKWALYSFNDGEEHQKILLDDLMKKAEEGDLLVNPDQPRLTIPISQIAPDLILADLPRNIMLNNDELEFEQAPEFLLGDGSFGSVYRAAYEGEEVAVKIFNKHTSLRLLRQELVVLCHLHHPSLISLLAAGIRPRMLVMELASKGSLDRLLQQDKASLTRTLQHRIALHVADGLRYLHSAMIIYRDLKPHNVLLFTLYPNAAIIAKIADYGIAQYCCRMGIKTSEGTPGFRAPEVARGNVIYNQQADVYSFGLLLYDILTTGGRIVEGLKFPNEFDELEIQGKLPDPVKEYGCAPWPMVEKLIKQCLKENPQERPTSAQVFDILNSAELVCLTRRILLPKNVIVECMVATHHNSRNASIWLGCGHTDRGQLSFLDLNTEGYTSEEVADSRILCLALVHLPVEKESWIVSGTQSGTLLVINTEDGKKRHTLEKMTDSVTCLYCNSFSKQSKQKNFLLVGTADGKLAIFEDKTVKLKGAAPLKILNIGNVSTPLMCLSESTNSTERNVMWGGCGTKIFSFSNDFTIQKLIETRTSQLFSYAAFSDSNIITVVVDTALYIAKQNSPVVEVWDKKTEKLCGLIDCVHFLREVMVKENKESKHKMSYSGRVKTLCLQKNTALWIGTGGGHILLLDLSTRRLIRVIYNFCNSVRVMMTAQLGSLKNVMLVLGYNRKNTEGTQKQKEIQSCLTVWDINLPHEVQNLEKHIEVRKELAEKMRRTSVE
In short: as §1

Sequence of Recombinant G2019S-LRRK2 protein (Q5S007 whole entry G2019S): as the sequence (Q5S007 whole entry) above, with G2019S counted along it

Structure (SMILES) | IC50 [1] [nM] | IC50 [2] [nM]
Cc1cc(-c2n[nH]c3ccc(NC(=O)c4ncc(C#N)cc4C)cc23)ccn1 [Example 74, 5-Cyano-3-methyl-N-(3-(2-methylpyridin-4-yl)-1H-indazol-5-yl)picolinamide] | < 100 | < 100
CCc1c(C#N)cccc1C(=O)Nc1ccc2[nH]nc(-c3ccoc3)c2c1 [Example 75, 3-Cyano-2-ethyl-N-(3-(furan-3-yl)-1H-indazol-5-yl)benzamide] | < 100 | < 100
Cc1cc(C#N)cnc1C(=O)Nc1ccc2[nH]nc(-c3coc(C#N)c3)c2c1 [Example 76, 5-Cyano-N-(3-(5-cyanofuran-3-yl)-1H-indazol-5-yl)-3-methylpicolinamide] | < 100 | < 100
N#Cc1cccc(C(=O)Nc2ccc3[nH]nc(-c4ccoc4)c3c2)c1F [Example 77, 3-Cyano-2-fluoro-N-(3-(furan-3-yl)-1H-indazol-5-yl)benzamide] | < 100 | < 100
Cc1cc(C#N)cc(C(=O)Nc2ccc3[nH]nc(-c4ccoc4)c3c2)n1 [Example 78, 4-Cyano-N-(3-(furan-3-yl)-1H-indazol-5-yl)-6-methylpicolinamide] | < 100 | 100 to 1000
N#Cc1ccnc(C(=O)Nc2ccc3[nH]nc(-c4ccoc4)c3c2)c1F [Example 79, 4-Cyano-3-fluoro-N-(3-(furan-3-yl)-1H-indazol-5-yl)picolinamide] | 100 to 1000 | 100 to 1000
Cc1cc(C#N)cnc1C(=O)Nc1cc(C)c2[nH]nc(-c3ccoc3)c2c1 [Example 80, 5-Cyano-N-(3-(furan-3-yl)-7-methyl-1H-indazol-5-yl)-3-methylpicolinamide] | 100 to 1000 | 1000 to 10000
Cc1nn(C)c(C#N)c1C(=O)Nc1ccc2[nH]nc(-c3ccoc3)c2c1 [Example 81, 5-Cyano-N-(3-(furan-3-yl)-1H-indazol-5-yl)-1,3-dimethyl-1H-pyrazole-4-carboxamide] | < 100 | < 100
N#Cc1cc(C(=O)Nc2ccc3[nH]nc(-c4ccoc4)c3c2)no1 [Example 82, 5-Cyano-N-(3-(furan-3-yl)-1H-indazol-5-yl)isoxazole-3-carboxamide] | < 100 | < 100
CCc1cc(C#N)cnc1C(=O)Nc1ccc2[nH]nc(-c3ccoc3)c2c1 [Example 83, 5-Cyano-3-ethyl-N-(3-(furan-3-yl)-1H-indazol-5-yl)picolinamide] | < 100 | 100 to 1000
C=Cc1cc(C#N)cnc1C(=O)Nc1ccc2[nH]nc(-c3ccoc3)c2c1 [Example 84, 5-Cyano-N-(3-(furan-3-yl)-1H-indazol-5-yl)-3-vinylpicolinamide] | < 100 | 100 to 1000
Cc1cc(C(=O)Nc2ccc3[nH]nc(-c4ccoc4)c3c2)nc(C)c1C#N [Example 85, 5-cyano-N-(3-(furan-3-yl)-1H-indazol-5-yl)-4,6-dimethylpicolinamide] | < 100 | 1000 to 10000
N#Cc1cccc(C(=O)Nc2ccc3[nH]nc(-c4ccoc4)c3c2)c1Cl [Example 86, 2-chloro-3-cyano-N-(3-(furan-3-yl)-1H-indazol-5-yl)benzamide] | < 100 | < 100
Cc1cc(C#N)cnc1C(=O)Nc1ccc2[nH]nc(I)c2c1 [Example 87, 5-cyano-N-(3-iodo-1H-indazol-5-yl)-3-methylpicolinamide] | < 100 | 100 to 1000
Cc1c(C#N)cccc1C(=O)Nc1cc(C)c2[nH]nc(-c3ccoc3)c2c1 [Example 88, 3-cyano-N-(3-(furan-3-yl)-7-methyl-1H-indazol-5-yl)-2-methylbenzamide] | 100 to 1000 | 1000 to 10000
N#Cc1cccc(C(=O)Nc2ccc3[nH]nc(-c4ccoc4)c3c2)c1Br [Example 89, 2-bromo-3-cyano-N-(3-(furan-3-yl)-1H-indazol-5-yl)benzamide] | < 100 | < 100
Cc1c(C(=O)Nc2ccc3[nH]nc(-c4ccoc4)c3c2)c(C#N)nn1C [Example 90, 3-Cyano-N-(3-(furan-3-yl)-1H-indazol-5-yl)-1,5-dimethyl-1H-pyrazole-4-carboxamide] | < 100 | < 100
N#Cc1cc(C(=O)Nc2ccc3[nH]nc(-c4ccoc4)c3c2)ns1 [Example 91, 5-Cyano-N-(3-(furan-3-yl)-1H-indazol-5-yl)isothiazole-3-carboxamide] | < 100 | < 100
Cc1c(C#N)nn(C)c1C(=O)Nc1ccc2[nH]nc(-c3ccoc3)c2c1 [Example 92, 3-Cyano-N-(3-(furan-3-yl)-1H-indazol-5-yl)-1,4-dimethyl-1H-pyrazole-5-carboxamide] | < 100 | 100 to 1000
Cc1c(C(=O)Nc2ccc3[nH]nc(-c4ccoc4)c3c2)nn(C)c1C#N [Example 93, 5-Cyano-N-(3-(furan-3-yl)-1H-indazol-5-yl)-1,4-dimethyl-1H-pyrazole-3-carboxamide] | 100 to 1000 | 100 to 1000
Cc1cc(C(=O)Nc2ccc3[nH]nc(-c4ccoc4)c3c2)ncc1C#N [Example 94, 5-Cyano-N-(3-(furan-3-yl)-1H-indazol-5-yl)-4-methylpicolinamide] | < 100 | 100 to 1000
N#Cc1cnc(C(=O)Nc2ccc3[nH]nc(-c4ccoc4)c3c2)c(Cl)c1 [Example 95, 3-chloro-5-cyano-N-(3-(furan-3-yl)-1H-indazol-5-yl)picolinamide] | < 100 | < 100
Cn1c(C#N)cnc1C(=O)Nc1ccc2[nH]nc(-c3ccoc3)c2c1 [Example 96, 5-Cyano-N-(3-(furan-3-yl)-1H-indazol-5-yl)-1-methyl-1H-imidazole-2-carboxamide] | 100 to 1000 | 100 to 1000
Cn1nc(C(=O)Nc2ccc3[nH]nc(-c4ccoc4)c3c2)cc1C#N [Example 97, 5-Cyano-N-(3-(furan-3-yl)-1H-indazol-5-yl)-1-methyl-1H-pyrazole-3-carboxamide] | < 100 | 100 to 1000
Cc1ccccc1-c1n[nH]c2ccc(NC(=O)c3ncc(C#N)cc3C)cc12 [Example 98, 5-Cyano-3-methyl-N-(3-(o-tolyl)-1H-indazol-5-yl)picolinamide] | 1000 to 10000 | > 10000
COc1ccccc1-c1n[nH]c2ccc(NC(=O)c3ncc(C#N)cc3C)cc12 [Example 99, 5-Cyano-N-(3-(2-methoxyphenyl)-1H-indazol-5-yl)-3-methylpicolinamide] | 100 to 1000 | 1000 to 10000
Cc1cc(C#N)cnc1C(=O)Nc1ccc2[nH]nc(-c3ccoc3)c2n1 [Example 100, 5-Cyano-N-(3-(furan-3-yl)-1H-pyrazolo[4,3-b]pyridin-5-yl)-3-methylpicolinamide] | < 100 | < 100
Cc1cc(C#N)cnc1C(=O)Nc1ccc2[nH]nc(-c3ccno3)c2c1 [Example 101, 5-Cyano-N-(3-(isoxazol-5-yl)-1H-indazol-5-yl)-3-methylpicolinamide] | < 100 | 100 to 1000
Cc1cc(C#N)cnc1C(=O)Nc1ccc2[nH]nc(-c3ccc(CN4CCOCC4)s3)c2c1 [Example 102, 5-Cyano-3-methyl-N-(3-(5-(morpholinomethyl)thiophen-2-yl)-1H-indazol-5-yl)picolinamide] | < 100 | 100 to 1000
Cc1cc(C#N)cnc1C(=O)Nc1ccc2[nH]nc(-c3ccnc(Br)c3)c2c1 [Example 103, N-(3-(2-Bromopyridin-4-yl)-1H-indazol-5-yl)-5-cyano-3-methylpicolinamide] | < 100 | < 100
